Measurements taken from US12064448B2, “Methods for reducing bioavailability and absorption of ingested substances” (Nanyang Technological University, priority 2017, dated 2024).

Test system: pancreatic lipase
Assay: 3-phase simulated digestion, pH-stat titration of fatty acids released in small intestinal phase
Type: biochemical
Conditions: heavy cream, 13.3% fat, orlistat 4.8 mg/ml
From the text: Corn oils was purchased from Sigma, Inc. These aforementioned fat food models were combined with nanocellulose or other control fibers including psyllium husk (Sigma) and wheat dextrin (Sigma) or the lipase inhibitor orlistat (Sigma). To combine test materials with cream, water, cream and the test material were combined to achieve the desired final concentrations of each, and the mixture was vortexed for 30 seconds. To combine test fibers with corn oil, the oil and water components were first combined and homogenized at high speed for 1 minute. Fibers or orlistat were then added to the emulsion and the mixture was vortexed for 30 seconds.
In vivo simulated digestion was performed using a 3-phase (mouth, stomach, small intestine) method. Briefly, in the mouth phase of the gastrointestinal tract (GIT) simulator, the nano-enabled food was mixed with a simulated saliva fluid and incubated at 37° C. for 10 seconds. The resultant mouth digesta was then combined and incubated with a simulated gastric fluid and incubated for 2 hours at 37° C. on an orbital shaker to complete the stomach phase. […] Free fatty acid (FFA) at the beginning of the intestinal phase (before addition of lipase) and in the final digesta was measured using a fluorometric assay kit (Cayman Chemical Cat #700310). […]

In the case of `CCCCCCCCCCC[C@@H](C[C@@H]1OC(=O)[C@H]1CCCCCC)OC(=O)[C@H](CC(C)C)NC=O` [orlistat], the “reduction of lipase activity (NaOH titrant used, percentage of total free fatty acids released)” value is reported as 91.5%.
